Structures are written as SMILES.

T3 sequence (P29274 whole entry): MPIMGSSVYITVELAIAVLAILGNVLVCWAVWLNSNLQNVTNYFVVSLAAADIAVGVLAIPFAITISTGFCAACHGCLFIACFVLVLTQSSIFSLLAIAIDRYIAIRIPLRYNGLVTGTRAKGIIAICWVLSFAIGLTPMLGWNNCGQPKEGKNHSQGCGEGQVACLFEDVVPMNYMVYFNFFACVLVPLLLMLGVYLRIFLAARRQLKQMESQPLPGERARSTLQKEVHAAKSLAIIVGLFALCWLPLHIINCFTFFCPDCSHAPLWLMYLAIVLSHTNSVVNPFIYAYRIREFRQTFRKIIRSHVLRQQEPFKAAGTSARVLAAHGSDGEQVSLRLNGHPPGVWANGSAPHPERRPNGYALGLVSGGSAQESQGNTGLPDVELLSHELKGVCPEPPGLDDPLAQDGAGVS

The target of the first assay is T1, human adenosine A1 receptor (Homo sapiens, UniProt P30542).
T1 construct: expressed in transfected cells; host or cells: CHO-K1
T1 sequence (P30542 1-326): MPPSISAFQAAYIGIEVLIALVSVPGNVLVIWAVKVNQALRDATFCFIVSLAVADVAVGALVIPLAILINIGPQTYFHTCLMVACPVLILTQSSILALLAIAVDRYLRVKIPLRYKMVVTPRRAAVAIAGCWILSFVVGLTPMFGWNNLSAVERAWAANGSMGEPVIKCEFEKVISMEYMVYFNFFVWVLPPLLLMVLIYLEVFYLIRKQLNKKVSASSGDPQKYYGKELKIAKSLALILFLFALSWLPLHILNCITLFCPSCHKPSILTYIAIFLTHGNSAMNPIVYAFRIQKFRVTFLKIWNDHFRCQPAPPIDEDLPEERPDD
Nature of the assay: Adenosine A1 Receptor Functional Assay (A1GAL2). The class given is cell-based. The settings on record: CHO-K1 cells, cAMP inducible beta-galactosidase reporter, 4 nM r-PIA/1 uM Forskolin challenge. The procedure: Adenosine A1 Receptor Functional Assay (A1GAL2)
(§1) To initiate the functional assay, cryopreserved CHO-K1 cells overexpressing the human adenosine A1 receptor and containing a cAMP inducible beta-galactosidase reporter gene were thawed, centrifuged, DMSO containing media removed, and then seeded with fresh culture media into clear 384-well tissue culture treated plates (BD #353961) at a concentration of 10K cells/well. Prior to assay, these plates were cultured for two days at 37° C., 5% CO2, 90% Rh. On the day of the functional assay, culture media was removed and replaced with 45 uL assay medium (Hams/F-12 Modified (Mediatech #10-080CV) supplemented w/0.1% BSA). Test compounds were diluted and 11 point curves created at a 1000× concentration in 100% DMSO. Immediately after addition of assay media to the cell plates, 50 nL of the appropriate test compound antagonist or agonist control curves were added to cell plates using a Cartesian Hummingbird. Compound curves were allowed to incubate at room temperature on cell plates for approximately 15 minutes before addition of a 4 nM r-PIA (Sigma P4532)/1 uM Forskolin (Sigma F3917) agonist challenge (5 uL volume). A control curve of r-PIA in 1 uM Forskolin, a DMSO/Media control, and a single dose of Forskolin were also included on each plate. After additions, cell plates were allowed to incubate at 37° C., 5% CO2, 90% Rh for 5.5-6 hours. After incubation, media was removed, and cell plates were washed 1×50 uL with DPBS w/o Ca & Mg (Mediatech 21-031-CV). Into dry wells, 20 uL of 1× Reporter Lysis Buffer (Promega E3971 (diluted in dH2O from 5× stock)) was added to each well and plates frozen at −20° C. overnight. For β-galactosidase enzyme calorimetric assay, plates were thawed out at room temperature and 20 μL 2× assay buffer (Promega) was added to each well. Color was allowed to develop at 37° C., 5% CO2, 90% Rh for 1-1.5 h or until reasonable signal appeared. The calorimetric reaction was stopped with the addition of 60 μL/well 1M sodium carbonate. Plates were counted at 405 nm on a SpectraMax Microplate Reader (Molecular Devices). Data was analyzed in Microsoft Excel and IC/EC50 curves were fit using a standardized macro.
As to `COc1ccccc1C(O)c1cc2c(N)nc(-c3ccc(C)o3)nc2s1` (stereo not drawn) [Example 11, [4-Amino-2-(5-methyl-furan-2-yl)-thieno[2,3-d]pyrimidin-6-yl]-(2-methoxy-phenyl)-methanol], the Ki (commonly the equilibrium dissociation constant of an inhibitor or competing ligand from its target) amounted to 10.2 nM.
The same measure, in the same setting: to `COc1ccccc1Cc1cc2c(N)nc(-c3ccc(C)o3)nc2s1` [Example 12, 6-(2-Methoxy-benzyl)-2-(5-methyl-furan-2-yl)-thieno[2,3-d]pyrimidin-4-ylamine] belongs 115 nM; to `Nc1nc(-c2cccnc2)nc2sc(Cc3ccccc3)cc12` [Example 13, 6-Benzyl-2-pyridin-3-yl-thieno[2,3-d]pyrimidin-4-ylamine], 1420 nM; to `Cc1csc(-c2nc(N)c3cc(Cc4ccccc4)sc3n2)n1` [Example 14, 6-Benzyl-2-(4-methyl-thiazol-2-yl)-thieno[2,3-d]pyrimidin-4-ylamine], 1490 nM.
As to `Cc1ccc(-c2nc(N)c3cc(CCc4ccccc4)sc3n2)o1` [Example 22, 2-(5-Methyl-furan-2-yl)-6-phenethyl-thieno[2,3-d]pyrimidin-4-ylamine], affinity was put at a Ki of 2760 nM.
As to `Cc1ccc(-c2nc(N)c3cc(CCc4ccc(F)cc4)sc3n2)o1` [Example 29, 6-[2-(4-Fluoro-phenyl)-ethyl]-2-(5-methyl-furan-2-yl)-thieno[2,3-d]pyrimidin-4-ylamine], the affinity corresponds to a Ki of 1570 nM.
Still for that read-out and setting: to `Cc1ccc(-c2nc(N)c3cc(/C=C/c4ccc(F)cc4)sc3n2)o1` [Example 30, 6-[2-(4-Fluoro-phenyl)-vinyl]-2-(5-methyl-furan-2-yl)-thieno[2,3-d]pyrimidin-4-ylamine] belongs 20200 nM; to `Cc1ccc(-c2nc(N)c3cc(/C=C/c4ccccc4)sc3n2)o1` [Example 33, 2-(5-Methyl-furan-2-yl)-6-styryl-thieno[2,3-d]pyrimidin-4-ylamine], 3340 nM.
`Nc1nc(-c2ccc(C(F)F)o2)nc2sc(C(O)c3ccccc3)cc12` (stereo not drawn) [Example 41, [4-Amino-2-(5-difluoromethyl-furan-2-yl)-thieno[2,3-d]pyrimidin-6-yl]-phenyl-methanol] yielded an inhibition constant Ki of 223 nM.
On the same count and under the same terms, the figure for `Nc1nc(-c2ccc(C(F)F)o2)nc2sc(Cc3ccccc3)cc12` [Example 43, 6-Benzyl-2-(5-difluoromethyl-furan-2-yl)-thieno[2,3-d]pyrimidin-4-ylamine] is 3000 nM.

In another assay the target is T2, human A2a adenosine receptor (Homo sapiens, UniProt P29274).
T2 construct: purchased PerkinElmer RB-HA2a; host or cells: HEK293 plasma membranes
T2 sequence (P29274 whole entry): as the sequence (P29274 whole entry) above
Nature of the assay: Ligand Binding Assay for Adenosine A2a Receptor. The settings on record: HEK293 plasma membrane, radioligand [3H]CGS21680; read-out: A2A-B Ki. How it is done:
Ligand Binding Assay for Adenosine A2a Receptor
Ligand binding assay of adenosine A2a receptor was performed using plasma membrane of HEK293 cells containing human A2a adenosine receptor (PerkinElmer, RB-HA2a) and radioligand [^3H]CGS21680 (PerkinElmer, NET1021). Assay was set up in 96-well polypropylene plate in total volume of 200 μL by sequentially adding 20 μL 1:20 diluted membrane, 130 μL assay buffer (50 mM Tris.HCl, pH7.4 10 mM MgCl2, 1 mM EDTA) containing [^3H] CGS21680, 50 μL diluted compound (4×) or vehicle control in assay buffer. Nonspecific binding was determined by […] NECA. Reaction was carried out at room temperature for 2 hours before filtering through 96-well GF/C filter plate pre-soaked in 50 mM Tris.HCl, pH7.4 containing 0.3% polyethylenimine. Plates were then washed 5 times with cold 50 mM Tris.HCl, pH7.4, dried and sealed at the bottom. Microscintillation fluid 30 μL was added to each well and the top sealed. Plates were counted on Packard Topcount for [^3H]. Data was analyzed in Microsoft Excel and GraphPad Prism programs. (Varani, K.; Gessi, S.; Dalpiaz, A.; Borea, P. A. British Journal of Pharmacology, 1996, 117, 1693)
Regarding `COc1ccccc1C(O)c1cc2c(N)nc(-c3ccc(C)o3)nc2s1` (stereo not drawn) [Example 11, [4-Amino-2-(5-methyl-furan-2-yl)-thieno[2,3-d]pyrimidin-6-yl]-(2-methoxy-phenyl)-methanol], the Ki is 6.72 nM.
For the compound `COc1ccccc1Cc1cc2c(N)nc(-c3ccc(C)o3)nc2s1` [Example 12, 6-(2-Methoxy-benzyl)-2-(5-methyl-furan-2-yl)-thieno[2,3-d]pyrimidin-4-ylamine], the inhibitory constant (Ki) stood at 51 nM.
On to `Nc1nc(-c2cccnc2)nc2sc(Cc3ccccc3)cc12` [Example 13, 6-Benzyl-2-pyridin-3-yl-thieno[2,3-d]pyrimidin-4-ylamine], for which the Ki was 192 nM.
As for `Cc1csc(-c2nc(N)c3cc(Cc4ccccc4)sc3n2)n1` [Example 14, 6-Benzyl-2-(4-methyl-thiazol-2-yl)-thieno[2,3-d]pyrimidin-4-ylamine], the Ki stood at 46.3 nM.
As for `Cc1ccc(-c2nc(N)c3cc(CCc4ccccc4)sc3n2)o1` [Example 22, 2-(5-Methyl-furan-2-yl)-6-phenethyl-thieno[2,3-d]pyrimidin-4-ylamine], the Ki came to 50 nM.
Turning to `Cc1ccc(-c2nc(N)c3cc(CCc4ccc(F)cc4)sc3n2)o1` [Example 29, 6-[2-(4-Fluoro-phenyl)-ethyl]-2-(5-methyl-furan-2-yl)-thieno[2,3-d]pyrimidin-4-ylamine], the Ki turned out to be 6.61 nM.
The same measure, in the same setting: the figure for `Cc1ccc(-c2nc(N)c3cc(/C=C/c4ccc(F)cc4)sc3n2)o1` [Example 30, 6-[2-(4-Fluoro-phenyl)-vinyl]-2-(5-methyl-furan-2-yl)-thieno[2,3-d]pyrimidin-4-ylamine] is 173 nM; for `Cc1ccc(-c2nc(N)c3cc(/C=C/c4ccccc4)sc3n2)o1` [Example 33, 2-(5-Methyl-furan-2-yl)-6-styryl-thieno[2,3-d]pyrimidin-4-ylamine] it is 26 nM.
For the compound `Nc1nc(-c2ccc(C(F)F)o2)nc2sc(C(O)c3ccccc3)cc12` (stereo not drawn) [Example 41, [4-Amino-2-(5-difluoromethyl-furan-2-yl)-thieno[2,3-d]pyrimidin-6-yl]-phenyl-methanol], the Ki amounted to 17.9 nM.
For `Nc1nc(-c2ccc(C(F)F)o2)nc2sc(Cc3ccccc3)cc12` [Example 43, 6-Benzyl-2-(5-difluoromethyl-furan-2-yl)-thieno[2,3-d]pyrimidin-4-ylamine], the Ki worked out at 37.5 nM.

A further assay concerns the target T3, human adenosine A2a receptor (Homo sapiens, UniProt P29274).
T3 construct: expressed in transfected cells; host or cells: CHO-K1
Nature of the assay: Adenosine A2a Receptor Functional Assay (A2AGAL2). The class given is cell-based. The settings on record: CHO-K1 cells, cAMP inducible beta-galactosidase reporter, 15 nM NECA agonist challenge. The procedure: Adenosine A2a Receptor Functional Assay (A2AGAL2)
as §1, with “Prior” for “To initiate the functional assay, cryopreserved CHO-K1 cells overexpressing the human adenosine A1 receptor and containing a cAMP inducible beta-galactosidase reporter gene were thawed, centrifuged, DMSO containing media removed, and then seeded with fresh culture media into clear 384-well tissue culture treated plates (BD #353961) at a concentration of 10K cells/well. Prior”, “Compound curves were allowed to incubate at room temperature on cell plates for approximately 15 minutes before addition of a 4 nM r-PIA (Sigma P4532)/1 uM Forskolin (Sigma F3917) agonist challenge (5 uL volume).” left out, “NECA,” for “r-PIA in 1 uM Forskolin,”, “Forskolin (Sigma F3917)” for “Forskolin”, “colorimetric” for “calorimetric”
`COc1ccccc1C(O)c1cc2c(N)nc(-c3ccc(C)o3)nc2s1` (stereo not drawn) [Example 11, [4-Amino-2-(5-methyl-furan-2-yl)-thieno[2,3-d]pyrimidin-6-yl]-(2-methoxy-phenyl)-methanol] had a Ki of 1.98 nM.
Consider `COc1ccccc1Cc1cc2c(N)nc(-c3ccc(C)o3)nc2s1` [Example 12, 6-(2-Methoxy-benzyl)-2-(5-methyl-furan-2-yl)-thieno[2,3-d]pyrimidin-4-ylamine], for which the affinity, expressed as Ki, was 10.1 nM.
Still for that read-out and setting: the figure for `Nc1nc(-c2cccnc2)nc2sc(Cc3ccccc3)cc12` [Example 13, 6-Benzyl-2-pyridin-3-yl-thieno[2,3-d]pyrimidin-4-ylamine] is 215 nM; for `Cc1csc(-c2nc(N)c3cc(Cc4ccccc4)sc3n2)n1` [Example 14, 6-Benzyl-2-(4-methyl-thiazol-2-yl)-thieno[2,3-d]pyrimidin-4-ylamine] it is 16.1 nM.
Take `Cc1ccc(-c2nc(N)c3cc(CCc4ccccc4)sc3n2)o1` [Example 22, 2-(5-Methyl-furan-2-yl)-6-phenethyl-thieno[2,3-d]pyrimidin-4-ylamine]: the Ki worked out at 189 nM.
Still for that read-out and setting: the figure for `Cc1ccc(-c2nc(N)c3cc(CCc4ccc(F)cc4)sc3n2)o1` [Example 29, 6-[2-(4-Fluoro-phenyl)-ethyl]-2-(5-methyl-furan-2-yl)-thieno[2,3-d]pyrimidin-4-ylamine] is 61.2 nM.
`Cc1ccc(-c2nc(N)c3cc(/C=C/c4ccc(F)cc4)sc3n2)o1` [Example 30, 6-[2-(4-Fluoro-phenyl)-vinyl]-2-(5-methyl-furan-2-yl)-thieno[2,3-d]pyrimidin-4-ylamine] registered a Ki of 938 nM.
For `Cc1ccc(-c2nc(N)c3cc(/C=C/c4ccccc4)sc3n2)o1` [Example 33, 2-(5-Methyl-furan-2-yl)-6-styryl-thieno[2,3-d]pyrimidin-4-ylamine], the inhibitory constant (Ki) amounted to 236 nM.
Turning to `Nc1nc(-c2ccc(C(F)F)o2)nc2sc(C(O)c3ccccc3)cc12` (stereo not drawn) [Example 41, [4-Amino-2-(5-difluoromethyl-furan-2-yl)-thieno[2,3-d]pyrimidin-6-yl]-phenyl-methanol], affinity was put at a Ki of 11.3 nM.
On to `Nc1nc(-c2ccc(C(F)F)o2)nc2sc(Cc3ccccc3)cc12` [Example 43, 6-Benzyl-2-(5-difluoromethyl-furan-2-yl)-thieno[2,3-d]pyrimidin-4-ylamine], for which the Ki stood at 25.2 nM.
